The nature of series [1]: In vitro photo-release and hydrolytic release of dicamba in an aqueous medium (Example 36). The format is physicochemical. Conditions: 0.01 mM (0.005 mM for diesters); for Conversion to Dicamba, Dark, Day 0 / Conversion to Dicamba, Dark, Day 1 / Conversion to Dicamba, Dark, Day 2 / Conversion to Dicamba, Dark, Day 3 / Conversion to Dicamba, Dark, Day 4 / Conversion to Dicamba, Dark, Day 7 / Conversion to Dicamba, Dark, Day 14 / Conversion to Dicamba, Dark, Day 21 / Conversion to Dicamba, Dark, Day 28 / Conversion to dicamba, Dark, Day 10: amber (dark) bottle; for Conversion to Dicamba, Light, Day 0 / Conversion to Dicamba, Light, Day 1 / Conversion to Dicamba, Light, Day 2 / Conversion to Dicamba, Light, Day 3 / Conversion to Dicamba, Light, Day 4 / Conversion to Dicamba, Light, Day 7 / Conversion to Dicamba, Light, Day 14 / Conversion to Dicamba, Light, Day 21 / Conversion to Dicamba, Light, Day 28 / Conversion to dicamba, Light, Day 10: quartz tube. Here is the method: This Example describes the determination of photo-lability and hydrolytic lability of dicamba esters in an aqueous medium. 1 mM solutions of the esters were prepared in acetonitrile (or […] solutions of dicamba diesters). The solutions were then diluted with deionized water to a concentration of 0.01 mM (or 0.005 mM for diesters). The solutions were then transferred to quartz tubes and amber bottles and held in a growth chamber by the procedure of Example 26. A 14-hour day was generally used at a constant temperature of 35° C. Hydrolytic activity was assessed by measuring the increase in dicamba concentration after day zero in the amber (dark) bottles. […] Photolysis manifested itself as increased conversion in the quartz tubes compared to the dark control.
This Example provides the results of an aqueous lability test following the protocol of Example 35 for several dicamba esters which convert to dicamba primarily by hydrolysis. As shown by the results in the table below, conversion of the dark controls generally equaled or exceeded conversion in the photolysis solutions.

Another series has as its system velvetleaf. As to the kind of experiment: Greenhouse post-emergent control of velvetleaf by emulsifiable concentrates (Example 37). In kind it is in vivo. To be noted: for pest or weed control at 140 g/ha / pest or weed control at 280 g/ha / pest or weed control at 420 g/ha / pest or weed control at 560 g/ha: Abutilon theophrasti, post-emergence, 504 h; for pest or weed control at 140 g/ha: read-out: % Control of velvetleaf, 140 g/ha; for pest or weed control at 280 g/ha: read-out: % Control of velvetleaf, 280 g/ha; for pest or weed control at 420 g/ha: read-out: % Control of velvetleaf, 420 g/ha; for pest or weed control at 560 g/ha: read-out: % Control of velvetleaf, 560 g/ha. Here is the method: The efficacy of some photo-labile ester formulations from Example 28 for post-emergent control of velvetleaf was tested in the greenhouse. All formulations were tested at rates of 140, 280, 420, and 560 g dicamba equivalent per hectare rates and compared to the diglycolamine salt of dicamba (CLARITY®) at the same rates and untreated control plants. The velvetleaf plants were 10-15 cm in height at the time of spraying. Percent control was evaluated three weeks after treatment.
The methodology of Example 29 was used to evaluate the efficacy of several esters of dicamba which convert to dicamba by hydrolysis for post-emergent control of velvetleaf as emulsifiable concentrate formulations.

Like-named read-outs stand apart in the source and are kept apart here.

Regarding `CCOC(=O)CCn1nc(OC(=O)c2c(Cl)ccc(Cl)c2OC)ccc1=O` [Ester 35a], in series [1], the “Conversion to Dicamba, Dark, Day 0” value is given as 19%; the “Conversion to Dicamba, Dark, Day 1” value is given as 66%; the “Conversion to Dicamba, Dark, Day 2” value is recorded as 69%; the “Conversion to Dicamba, Dark, Day 3” value is 68%. For the same compound, in series [1], the “Conversion to Dicamba, Dark, Day 4” value amounted to 71%; the “Conversion to Dicamba, Dark, Day 7” value is 74%; the “Conversion to Dicamba, Dark, Day 14” value is 70%; the “Conversion to Dicamba, Dark, Day 21” value turned out to be 70%. Further, in series [1], the “Conversion to Dicamba, Dark, Day 28” value is recorded as 74%; the “Conversion to Dicamba, Light, Day 0” value is 19%; the “Conversion to Dicamba, Light, Day 1” value stood at 57%; the “Conversion to Dicamba, Light, Day 2” value is 58%. Also, in series [1], the “Conversion to Dicamba, Light, Day 3” value was determined as 58%; the “Conversion to Dicamba, Light, Day 4” value is 62%; the “Conversion to Dicamba, Light, Day 7” value stood at 60%; the “Conversion to Dicamba, Light, Day 14” value turned out to be 64%. Further, in series [1], the “Conversion to Dicamba, Light, Day 21” value is recorded as 63% and the “Conversion to Dicamba, Light, Day 28” value is on record as 65%. In the series on velvetleaf, the pest or weed control at 140 g/ha stood at 35.8%, the pest or weed control at 280 g/ha is 60%, the pest or weed control at 420 g/ha came out at 85% and the pest or weed control at 560 g/ha worked out at 87.5%.
With `C=C(C(=O)OCC)C(OC(=O)c1c(Cl)ccc(Cl)c1OC)c1ccccc1[N+](=O)[O-]` (stereo not shown) [Ester 31a], in series [1], the “Conversion to Dicamba, Dark, Day 0” value was 16%; the “Conversion to Dicamba, Dark, Day 1” value stood at 37%; the “Conversion to Dicamba, Dark, Day 2” value came to 43%; the “Conversion to Dicamba, Dark, Day 3” value came out at 43%. In series [1], the “Conversion to Dicamba, Dark, Day 4” value is 44%; the “Conversion to Dicamba, Dark, Day 7” value turned out to be 49%; the “Conversion to dicamba, Dark, Day 10” value is reported as 50%; the “Conversion to Dicamba, Dark, Day 14” value is 51%. Also, in series [1], the “Conversion to Dicamba, Dark, Day 21” value was determined as 49%; the “Conversion to Dicamba, Dark, Day 28” value came to 50%; the “Conversion to Dicamba, Light, Day 0” value came out at 16%; the “Conversion to Dicamba, Light, Day 1” value is given as 45%. Moreover, in series [1], the “Conversion to Dicamba, Light, Day 2” value is recorded as 48%; the “Conversion to Dicamba, Light, Day 3” value stood at 46%; the “Conversion to Dicamba, Light, Day 4” value was 45%; the “Conversion to Dicamba, Light, Day 7” value was 46%. For the same compound, in series [1], the “Conversion to dicamba, Light, Day 10” value turned out to be 50%; the “Conversion to Dicamba, Light, Day 14” value stood at 51%; the “Conversion to Dicamba, Light, Day 21” value was 53%; the “Conversion to Dicamba, Light, Day 28” value is 53%.
Turning to `COc1c(Cl)ccc(Cl)c1C(=O)Oc1ccc(=O)n(CCC=O)n1` [Ester 33a], in series [1], the “Conversion to Dicamba, Dark, Day 0” value was 13%; the “Conversion to Dicamba, Dark, Day 1” value came to 15%; the “Conversion to Dicamba, Dark, Day 2” value came to 18%; the “Conversion to Dicamba, Dark, Day 3” value is recorded as 18%. In series [1], the “Conversion to Dicamba, Dark, Day 4” value is recorded as 22%; the “Conversion to Dicamba, Dark, Day 7” value is 21%; the “Conversion to dicamba, Dark, Day 10” value is 28%; the “Conversion to Dicamba, Dark, Day 14” value was determined as 37%. Besides, in series [1], the “Conversion to Dicamba, Dark, Day 21” value turned out to be 50%; the “Conversion to Dicamba, Dark, Day 28” value stood at 55%; the “Conversion to Dicamba, Light, Day 0” value is reported as 13%; the “Conversion to Dicamba, Light, Day 1” value was found to be 18%. For the same compound, in series [1], the “Conversion to Dicamba, Light, Day 2” value came out at 20%; the “Conversion to Dicamba, Light, Day 3” value came out at 19%; the “Conversion to Dicamba, Light, Day 4” value worked out at 22%; the “Conversion to Dicamba, Light, Day 7” value is on record as 23%. In series [1], the “Conversion to dicamba, Light, Day 10” value was 30%; the “Conversion to Dicamba, Light, Day 14” value was determined as 42%; the “Conversion to Dicamba, Light, Day 21” value is listed as 53%; the “Conversion to Dicamba, Light, Day 28” value stood at 57%. In addition, in the series on velvetleaf, the pest or weed control at 140 g/ha came out at 15.8%, the pest or weed control at 280 g/ha stood at 27.5%, the pest or weed control at 420 g/ha turned out to be 22.5% and the pest or weed control at 560 g/ha amounted to 30.8%. Also, in the series with velvetleaf (greenhouse, emulsifiable concentrates), the “post-emergent efficacy on velvetleaf compared with the salt, in words” value is listed as “reduced post-emergent efficacy”.
`COc1ccc(COC(=O)c2c(Cl)ccc(Cl)c2OC)cc1` [Ester 29a, 4-methoxybenzyl ester of dicamba]: in series [1], the “Conversion to Dicamba, Dark, Day 0” value turned out to be 27%; the “Conversion to Dicamba, Dark, Day 1” value turned out to be 81%; the “Conversion to Dicamba, Dark, Day 2” value worked out at 83%; the “Conversion to Dicamba, Dark, Day 3” value came out at 83%. In addition, in series [1], the “Conversion to Dicamba, Dark, Day 4” value was determined as 80%; the “Conversion to Dicamba, Dark, Day 7” value came out at 84%; the “Conversion to Dicamba, Dark, Day 14” value amounted to 85%; the “Conversion to Dicamba, Light, Day 0” value is on record as 27%. Moreover, in series [1], the “Conversion to Dicamba, Light, Day 1” value is 75%; the “Conversion to Dicamba, Light, Day 2” value turned out to be 74%; the “Conversion to Dicamba, Light, Day 3” value is given as 75%; the “Conversion to Dicamba, Light, Day 4” value stood at 74%. Moreover, in series [1], the “Conversion to Dicamba, Light, Day 7” value worked out at 76% and the “Conversion to Dicamba, Light, Day 14” value is listed as 77%. Moreover, the pest or weed control at 140 g/ha in the series on velvetleaf (greenhouse, 140 g/ha, Example 37) was 30%. The pest or weed control at 280 g/ha in the series on velvetleaf (greenhouse, 280 g/ha, Example 37) was determined as 55%. Besides, in the series on velvetleaf (greenhouse, 420 g/ha, Example 37), the pest or weed control at 420 g/ha was 74.2%. In addition, the pest or weed control at 560 g/ha with velvetleaf (greenhouse, 560 g/ha, Example 37) came to 81.7%.

(Values after patent US20170029355A1, “LABILE ESTERS OF AGROCHEMICALS FOR CONTROLLED RELEASE AND REDUCTION OF OFF-SITE MOVEMENT” (Monsanto Technology LLC, priority 2011, published 2017).)
